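Compound exposure: 48 hours, 5 concentrations, 96-well plates. At the GI50, growth is halved. At the TGI there is no net growth.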
Legend:
Assay in all cases: NCI-60 cell line screen, 48 h
UO-31 renal = system: UO-31 renal
OVCAR-8 ovarian = system: OVCAR-8 ovarian
RPMI-8226 leukemia = system: RPMI-8226 leukemia
SK-MEL-2 melanoma = system: SK-MEL-2 melanoma
IGROV1 ovarian = system: IGROV1 ovarian
U251 CNS = system: U251 CNS
PC-3 prostate = system: PC-3 prostate
SF-295 CNS = system: SF-295 CNS
NCI-H460 lung = system: NCI-H460 lung
SNB-75 CNS = system: SNB-75 CNS
HT29 colon = system: HT29 colon
HS 578T breast = system: HS 578T breast
SK-OV-3 ovarian = system: SK-OV-3 ovarian
SF-539 CNS = system: SF-539 CNS
MALME-3M melanoma = system: MALME-3M melanoma
OVCAR-5 ovarian = system: OVCAR-5 ovarian
OVCAR-3 ovarian = system: OVCAR-3 ovarian
EKVX NSCLC = system: EKVX NSCLC
SN12C renal = system: SN12C renal
OVCAR-4 ovarian = system: OVCAR-4 ovarian
786-0 renal = system: 786-0 renal
HCT-15 colon = system: HCT-15 colon
T-47D breast = system: T-47D breast
CCRF-CEM leukemia = system: CCRF-CEM leukemia
TK-10 renal = system: TK-10 renal
SNB-19 CNS = system: SNB-19 CNS
MDA-MB-231 breast = system: MDA-MB-231 breast
RXF 393 renal = system: RXF 393 renal
M14 melanoma = system: M14 melanoma
SK-MEL-28 melanoma = system: SK-MEL-28 melanoma
ACHN renal = system: ACHN renal
MCF7 breast = system: MCF7 breast
NCI-H226 lung = system: NCI-H226 lung
DU-145 prostate = system: DU-145 prostate
MOLT-4 leukemia = system: MOLT-4 leukemia
A549 NSCLC = system: A549 NSCLC
A498 renal = system: A498 renal
NCI-H23 lung = system: NCI-H23 lung
HCT-116 colon = system: HCT-116 colon
NCI/ADR-RES ovarian = system: NCI/ADR-RES ovarian
SK-MEL-5 melanoma = system: SK-MEL-5 melanoma
LOX IMVI melanoma = system: LOX IMVI melanoma
SF-268 CNS = system: SF-268 CNS
SW-620 colon = system: SW-620 colon
SR leukemia = system: SR leukemia
KM12 colon = system: KM12 colon
HCC-2998 colon = system: HCC-2998 colon
MDA-MB-435 = system: MDA-MB-435
K-562 leukemia = system: K-562 leukemia
CAKI-1 renal = system: CAKI-1 renal
NCI-H522 lung = system: NCI-H522 lung
HOP-92 NSCLC = system: HOP-92 NSCLC
HOP-62 NSCLC = system: HOP-62 NSCLC
COLO 205 colon = system: COLO 205 colon
UACC-257 melanoma = system: UACC-257 melanoma
UACC-62 melanoma = system: UACC-62 melanoma

O=C(Nc1ccccc1OC(=O)c1ccccc1)c1ccccc1
GI50 (UO-31 renal): 13.8 µM
TGI (UO-31 renal): > 100 µM
GI50 (OVCAR-8 ovarian): 6.35 µM
TGI (OVCAR-8 ovarian): > 100 µM
GI50 (RPMI-8226 leukemia): 38.6 µM
TGI (RPMI-8226 leukemia): > 100 µM
GI50 (SK-MEL-2 melanoma): 51.1 µM
TGI (SK-MEL-2 melanoma): > 100 µM
GI50 (IGROV1 ovarian): 2.91 µM
TGI (IGROV1 ovarian): 17.1 µM
GI50 (U251 CNS): 6.35 µM
TGI (U251 CNS): > 100 µM
GI50 (PC-3 prostate): 6.11 µM
TGI (PC-3 prostate): > 100 µM
GI50 (SF-295 CNS): 2.47 µM
TGI (SF-295 CNS): 8.03 µM
GI50 (NCI-H460 lung): 3.26 µM
TGI (NCI-H460 lung): 15.2 µM
GI50 (SNB-75 CNS): 7.72 µM
TGI (SNB-75 CNS): > 100 µM
GI50 (HT29 colon): 3.76 µM
TGI (HT29 colon): 41.4 µM
GI50 (HS 578T breast): 4.72 µM
TGI (HS 578T breast): > 100 µM
GI50 (SK-OV-3 ovarian): 33.6 µM
TGI (SK-OV-3 ovarian): > 100 µM
GI50 (SF-539 CNS): 22.8 µM
TGI (SF-539 CNS): > 100 µM
GI50 (MALME-3M melanoma): 14.5 µM
TGI (MALME-3M melanoma): > 100 µM
GI50 (OVCAR-5 ovarian): 51.5 µM
TGI (OVCAR-5 ovarian): > 100 µM
GI50 (OVCAR-3 ovarian): 3.94 µM
TGI (OVCAR-3 ovarian): 22.2 µM
GI50 (EKVX NSCLC): 7.45 µM
TGI (EKVX NSCLC): > 100 µM
GI50 (SN12C renal): 28.1 µM
TGI (SN12C renal): > 100 µM
GI50 (OVCAR-4 ovarian): 18.7 µM
TGI (OVCAR-4 ovarian): > 100 µM
GI50 (786-0 renal): 15.6 µM
TGI (786-0 renal): > 100 µM
GI50 (HCT-15 colon): 4.37 µM
TGI (HCT-15 colon): > 100 µM
GI50 (T-47D breast): 41.9 µM
TGI (T-47D breast): > 100 µM
GI50 (CCRF-CEM leukemia): 5.87 µM
TGI (CCRF-CEM leukemia): > 100 µM
GI50 (TK-10 renal): 31.5 µM
TGI (TK-10 renal): > 100 µM
GI50 (SNB-19 CNS): 25.1 µM
TGI (SNB-19 CNS): > 100 µM
GI50 (MDA-MB-231 breast): 6.44 µM
TGI (MDA-MB-231 breast): > 100 µM
GI50 (RXF 393 renal): 50.9 µM
TGI (RXF 393 renal): > 100 µM
GI50 (M14 melanoma): 25.3 µM
TGI (M14 melanoma): > 100 µM
GI50 (SK-MEL-28 melanoma): > 100 µM
TGI (SK-MEL-28 melanoma): > 100 µM
GI50 (ACHN renal): 43.6 µM
TGI (ACHN renal): > 100 µM
GI50 (MCF7 breast): 12.9 µM
TGI (MCF7 breast): > 100 µM
GI50 (NCI-H226 lung): > 100 µM
TGI (NCI-H226 lung): > 100 µM
GI50 (DU-145 prostate): 23.1 µM
TGI (DU-145 prostate): 88.7 µM
GI50 (MOLT-4 leukemia): 3.55 µM
TGI (MOLT-4 leukemia): > 100 µM
GI50 (A549 NSCLC): 16.5 µM
TGI (A549 NSCLC): > 100 µM
GI50 (A498 renal): 12.7 µM
TGI (A498 renal): 60.1 µM
GI50 (NCI-H23 lung): 8.05 µM
TGI (NCI-H23 lung): > 100 µM
GI50 (HCT-116 colon): 3.69 µM
TGI (HCT-116 colon): > 100 µM
GI50 (NCI/ADR-RES ovarian): 19.2 µM
TGI (NCI/ADR-RES ovarian): > 100 µM
GI50 (SK-MEL-5 melanoma): 31.5 µM
TGI (SK-MEL-5 melanoma): > 100 µM
GI50 (LOX IMVI melanoma): 3.92 µM
TGI (LOX IMVI melanoma): > 100 µM
GI50 (SF-268 CNS): 3.98 µM
TGI (SF-268 CNS): > 100 µM
GI50 (SW-620 colon): 4.25 µM
TGI (SW-620 colon): > 100 µM
GI50 (SR leukemia): 3.12 µM
TGI (SR leukemia): > 100 µM
GI50 (KM12 colon): 3.12 µM
TGI (KM12 colon): 10.9 µM
GI50 (HCC-2998 colon): 30.1 µM
TGI (HCC-2998 colon): > 100 µM
GI50 (MDA-MB-435): 24.5 µM
TGI (MDA-MB-435): > 100 µM
GI50 (K-562 leukemia): 3.22 µM
TGI (K-562 leukemia): > 100 µM
GI50 (CAKI-1 renal): 5.84 µM
TGI (CAKI-1 renal): 54.4 µM
GI50 (NCI-H522 lung): 11.2 µM
TGI (NCI-H522 lung): 77.9 µM
GI50 (HOP-92 NSCLC): 23.1 µM
TGI (HOP-92 NSCLC): > 100 µM
GI50 (HOP-62 NSCLC): 18.8 µM
TGI (HOP-62 NSCLC): > 100 µM
GI50 (COLO 205 colon): 30.1 µM
TGI (COLO 205 colon): 95.6 µM
GI50 (UACC-257 melanoma): 35.1 µM
TGI (UACC-257 melanoma): > 100 µM
GI50 (UACC-62 melanoma): 64.8 µM
TGI (UACC-62 melanoma): > 100 µM
